Here are results for three compounds from patent EP0359505A1, “Dopamine-beta hydroxylase inhibitors” (SMITHKLINE BEECHAM CORPORATION, priority 1988, dated 1990).

In series [1] the target is T1, DBH (Homo sapiens, UniProt P09172).
T1 sequence (P09172 1-617): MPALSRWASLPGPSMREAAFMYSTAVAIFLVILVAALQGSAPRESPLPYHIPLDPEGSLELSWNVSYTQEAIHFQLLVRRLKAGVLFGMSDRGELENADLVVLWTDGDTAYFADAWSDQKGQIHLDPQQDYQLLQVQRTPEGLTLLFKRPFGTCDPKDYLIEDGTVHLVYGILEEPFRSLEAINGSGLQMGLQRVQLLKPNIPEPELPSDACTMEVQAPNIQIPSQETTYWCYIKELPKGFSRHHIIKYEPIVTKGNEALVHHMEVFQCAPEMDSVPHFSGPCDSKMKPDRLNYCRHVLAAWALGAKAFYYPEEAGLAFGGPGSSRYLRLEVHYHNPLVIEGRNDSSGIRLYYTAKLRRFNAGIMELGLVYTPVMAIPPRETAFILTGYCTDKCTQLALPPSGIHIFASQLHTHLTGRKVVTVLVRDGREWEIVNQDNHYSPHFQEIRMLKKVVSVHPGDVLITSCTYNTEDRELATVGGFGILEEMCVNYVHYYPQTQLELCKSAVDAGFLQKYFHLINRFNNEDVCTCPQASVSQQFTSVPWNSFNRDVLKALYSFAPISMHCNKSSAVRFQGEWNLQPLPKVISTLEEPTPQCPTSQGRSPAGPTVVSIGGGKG
As to conditions: as reported by Runti et al.; cited from earlier work.

Series [2] relates to spontaneously hypertensive rats. As to the kind of experiment: mean arterial blood pressure in spontaneously hypertensive rats, indwelling cannulae in the tail arteries. The series is classed as in vivo. As to conditions: 100 mg/kg orally. As to the method:
Further, spontaneously hypertensive rats were treated with 3-mercapto-4-benzyl-5-(4-pyridyl)-1,2,4-triazole at a dose of 100 mg/kg orally and mean arterial blood pressure was monitored for 250 minutes using indwelling cannulae in the tail arteries. […] The maximal blood pressure reduction was approximately 25 mmHg.

For series [3] the following is noted: see Teresawa et al.; cited from earlier work.

Turning to phenylpicolinic acid, the “inhibitory activity relative to fusaric acid” value in series [1] is on record as “twice the inhibitory activity of fusaric acid”. Take `Sc1nnc(-c2ccncc2)n1Cc1ccccc1` [3-Mercapto-4-benzyl-5-(4-pyridyl)-1,2,4-triazole]: the “blood pressure compared to vehicle-treated controls” value in series [2] (between 80 and 240 minutes following treatment) is “significant blood pressure reductions”. For the same compound, the “maximal blood pressure reduction” value in series [2] (mean arterial blood pressure monitored for 250 minutes, compared to vehicle-treated controls) is on record as “approximately 25 mmHg”. Take `CCCCc1ccc(C(=O)O)nc1` [Fusaric acid]: the toxic effects result in series [3] was “hepatotoxic”.
